Experimental data taken from patent US8445689B2, “Pesticides” (Dow AgroSciences, LLC., priority 2008, dated 2013).
Read-outs that look alike come from different tables or passages of the source.

How the values were obtained:
[1] = system: Green Peach Aphid (Myzus persicae); test: Insecticidal test for green peach aphid in foliar spray assay on cabbage; type: in vivo; details: 72 h, read-out: Rating against green peach aphid on cabbage (foliar spray)
Protocol: Compounds 1-67 were tested against green peach aphid using procedures described hereinafter.
Insecticidal Test for Green Peach Aphid (Myzus persicae) in Foliar Spray Assay
Cabbage seedlings grown in 3-inch pots, with 2-3 small (3-5 cm) true leaves, were used as test substrate. The seedlings were infested with 20-50 green peach aphids (wingless adult and nymph) 1-2 d prior to chemical application. Four seedlings were used for each treatment. Compounds (2 mg) were dissolved in 2 mL of acetone-methanol (1:1) solvent, forming stock solutions of 1000 ppm. The stock solutions were diluted 5× with 0.025% Tween 20 in H2O to obtain a solution at 200 ppm. A hand-held Devilbiss aspirator sprayer was used for spraying a solution to both sides of cabbage leaves until runoff. Reference plants (solvent check) were sprayed with the diluent only. Treated plants were held in a holding room for 3 d at approximately 23° C. and 40% RH prior to grading. Evaluation was conducted by counting the number of live aphids per plant under a microscope. Insecticidal activity was measured by using Abbott's correction formula: Corrected % Control=100*(X−Y)/X • where X=No. of live aphids on solvent check plants • Y=No. of live aphids on treated plants

[2] = 200 ppm foliar spray on cabbage seedlings, graded after 3 d, corrected % control (Abbott)

SMILES | melting point [°C] | pest or weed control at 200 ppm [1, 2] [%] | pest or weed control at 200 ppm ([1]; foliar) [%]
CS(=O)(Cc1ccc(C(F)(F)F)nc1)=NC(=S)NC(=O)OCC1c2ccccc2-c2ccccc21 (centres unmarked) [Compound 28, 9H-Fluoren-9-ylmethyl[(methyl(oxido){[6-(trifluoromethyl)pyridin-3-yl]methyl}-λ^4-sulfanylidene)amino]carbonothioylcarbamate] | 92 to 97 |  | < 80
CS(=O)(Cc1ccc(Cl)nc1)=NC(=S)NC(=O)OCC1c2ccccc2-c2ccccc21 (centres unmarked) [Compound 30, 9H-Fluoren-9-ylmethyl{[[(6-chloropyridin-3-yl)methyl](methyl)oxido-λ^4-sulfanylidene]amino}carbonothioylcarbamate] | 98 to 101 |  | < 80
CC(c1ccc(C(F)(F)F)cc1)S(C)(=O)=NC(=S)NC(=O)OCC1c2ccccc2-c2ccccc21 (centres unmarked) [Compound 34, 9H-Fluoren-9-ylmethyl[(methyl(oxido){1-[4-(trifluoromethyl)phenyl]-ethyl}-λ^4-sulfanylidene)amino]carbonothioylcarbamate] | 86 to 93 |  | < 80
NC(=S)N=S1(=O)CCCC1c1ccc(Cl)nc1 (centres unmarked) [Compound 36, N-[2-(6-chloropyridin-3-yl)-1-oxidotetrahydro-1H-1λ^4-thien-1-ylidene]thiourea] | 168 to 172 | 80 to 100 | 
CS(=O)(Cc1ccc(Cl)nc1)=N/C(N)=N/O (centres unmarked) [Compound 39, N-[[(6-chloropyridin-3-yl)methyl](methyl)oxido-λ^4-sulfanylidene]-N″-hydroxyguanidine] | 156 to 158 | 80 to 100 | 

Further lines, with some results ahead:

melting point [°C] | SMILES | pest or weed control at 200 ppm [1, 2] [%] | pest or weed control at 200 ppm ([1]; foliar) [%]
181 to 183 | CC(c1ccc(C(F)(F)F)nc1)S(C)(=O)=NC(=S)Nc1ccc(Cl)cc1 (centres unmarked) [Compound 20] | < 80 | 
149 to 151 | CC(c1ccc(C(F)(F)F)nc1)S(C)(=O)=NC(=S)Nc1ccc(OC(F)(F)F)cc1 (centres unmarked) [Compound 21] | < 80 | 
145 to 147 | CC(c1ccc(C(F)(F)F)nc1)S(C)(=O)=NC(N)=S (centres unmarked) [Compound 22, N-(methyl(oxido){1-[6-(trifluoromethyl)pyridin-3-yl]ethyl}-λ^4-sulfanylidene)thiourea] | 80 to 100 | 
155 to 158 | CS(=O)(Cc1ccc(Cl)nc1)=NC(N)=S (centres unmarked) [Compound 31, N-[[(6-chloropyridin-3-yl)methyl](methyl)oxido-λ^4-sulfanylidene]thiourea] | 80 to 100 | 
137 to 140 | Cc1ccc(C(C)S(C)(=O)=NC(N)=S)cn1 (centres unmarked) [Compound 33, N-{methyl[1-(6-methylpyridin-3-yl)ethyl]oxido-λ^4-sulfanylidene}-thiourea] | 80 to 100 | 
166 to 168 | CC(c1ccc(C(F)(F)F)cc1)S(C)(=O)=NC(N)=S (centres unmarked) [Compound 35, N-(methyl(oxido){1-[4-(trifluoromethyl)phenyl]ethyl}-λ^4-sulfanylidene)thiourea] | < 80 | 
131 to 133 | COC(=O)CCC(=O)NC(=S)N=S(C)(=O)C(C)c1ccc(C(F)(F)F)nc1 (centres unmarked) [Compound 37, methyl 4-({[(methyl(oxido){1-[6-(trifluoromethyl)pyridin-3-yl]ethyl}-λ^4-sulfanylidene)amino]carbonothioyl}amino)-4-oxobutanoate] | 80 to 100 | 
157 to 159 | CC(c1ccc(C(F)(F)F)nc1)S(C)(=O)=N/C(N)=N/O (centres unmarked) [Compound 38, N″-hydroxy-N-(methyl(oxido){1-[6-(trifluoromethyl)pyridin-3-yl]ethyl}-λ^4-sulfanylidene)guanidine] | 80 to 100 | 
